Laboratory results reported in ChEMBL document CHEMBL4334438, “Discovery of novel glycogen synthase kinase-3α inhibitors: Structure-based virtual screening, preliminary SAR and biological evaluation for treatment of acute myeloid leukemia” (Eur J Med Chem, 2019).

Legend:
[1] = biological target: Mitogen-activated protein kinase 11 (Homo sapiens) (UniProt Q15759); assay: Inhibition of recombinant human full length SAPK2b assessed as residual activity at 1 uM using myelin basic protein as substrate measured after 40 mins in presence of [gamma33P]ATP by scintillation counting method relative to control
[2] = biological target: Ephrin type-B receptor 3 (Homo sapiens) (UniProt P54753); assay: Inhibition of recombinant human EphB3 (599 to 920 residues) assessed as residual activity at 1 uM using poly(Glu, Tyr) 4:1 as substrate at 40 mins in presence of [gamma-33ATP] by scintillation counting based radiometry assay relative to control
[3] = biological target: Serine/threonine-protein kinase BRSK1 (Homo sapiens) (UniProt Q8TDC3); assay: Inhibition of recombinant human BRSK1 ( 2 to end residues) assessed as residual activity at 1 uM using KKKVSRSGLYRSPSMPENLNRPR as substrate incubated for 40 mins in presence of [gamma-33ATP] by scintillation counting based radiometry assay relative to control
[4] = test system: CDK18/Cyclin Y (Homo sapiens), Q07002+Q8ND76 [T166M]; assay: Inhibition of recombinant full length human CDK18 /cyclinY T166M mutant assessed as residual activity at 1 uM using YRRAAVPPSPSLS as substrate incubated for 40 mins in presence of [gamma-33ATP] by scintillation counting based radiometry assay relative to control; assay type: protein-complex assay
[5] = biological target: Serine/threonine-protein kinase VRK2 (Homo sapiens) (UniProt Q86Y07); assay: Inhibition of human VRK2 (1 to 336 residues) assessed as residual activity at 1 uM using casein as substrate measured after 40 mins in presence of [gamma33P]ATP by scintillation counting method relative to control
Chain of Serine/threonine-protein kinase VRK2 (Homo sapiens) (Q86Y07 whole entry, the tested form may be a part): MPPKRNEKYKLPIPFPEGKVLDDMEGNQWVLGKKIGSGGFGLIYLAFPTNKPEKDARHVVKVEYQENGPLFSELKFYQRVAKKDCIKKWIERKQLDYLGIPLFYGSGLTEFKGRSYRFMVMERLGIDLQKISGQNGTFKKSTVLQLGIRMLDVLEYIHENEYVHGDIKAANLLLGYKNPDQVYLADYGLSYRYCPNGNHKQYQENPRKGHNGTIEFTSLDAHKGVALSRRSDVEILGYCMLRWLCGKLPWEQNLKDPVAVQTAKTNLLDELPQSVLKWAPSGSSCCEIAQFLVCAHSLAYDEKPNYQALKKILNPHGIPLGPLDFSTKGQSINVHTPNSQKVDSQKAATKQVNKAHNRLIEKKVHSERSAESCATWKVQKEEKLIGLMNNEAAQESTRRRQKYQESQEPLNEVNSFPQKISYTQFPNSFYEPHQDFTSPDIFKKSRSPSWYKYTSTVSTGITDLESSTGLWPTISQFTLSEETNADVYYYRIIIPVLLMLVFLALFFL

[6] = biological target: Ephrin type-A receptor 1 (Homo sapiens) (UniProt P21709); assay: Inhibition of recombinant human EphA1 (568 to end residues) assessed as residual activity at 1 uM using KKKSPGEYVNIEFG as substrate at 40 mins in presence of [gamma-33ATP] by scintillation counting based radiometry assay relative to control
[7] = biological target: ALK tyrosine kinase receptor (Homo sapiens) (UniProt Q9UM73); assay: Inhibition of human ALK (1058 to end residues) assessed as residual activity at 1 uM using KKKSPGEYVNIEFG as substrate incubated for 40 mins in presence of [gamma-33ATP] by scintillation counting based radiometry assay relative to control
[8] = biological target: Tau-tubulin kinase 2 (Homo sapiens) (UniProt Q6IQ55); assay: Inhibition of human TTBK2 (1 to 331 residues) assessed as residual activity at 1 uM using Casein as substrate measured after 40 mins in presence of [gamma33P]ATP by scintillation counting method relative to control
Chain of Tau-tubulin kinase 2 (Homo sapiens) (Q6IQ55 whole entry, the tested form may be a part): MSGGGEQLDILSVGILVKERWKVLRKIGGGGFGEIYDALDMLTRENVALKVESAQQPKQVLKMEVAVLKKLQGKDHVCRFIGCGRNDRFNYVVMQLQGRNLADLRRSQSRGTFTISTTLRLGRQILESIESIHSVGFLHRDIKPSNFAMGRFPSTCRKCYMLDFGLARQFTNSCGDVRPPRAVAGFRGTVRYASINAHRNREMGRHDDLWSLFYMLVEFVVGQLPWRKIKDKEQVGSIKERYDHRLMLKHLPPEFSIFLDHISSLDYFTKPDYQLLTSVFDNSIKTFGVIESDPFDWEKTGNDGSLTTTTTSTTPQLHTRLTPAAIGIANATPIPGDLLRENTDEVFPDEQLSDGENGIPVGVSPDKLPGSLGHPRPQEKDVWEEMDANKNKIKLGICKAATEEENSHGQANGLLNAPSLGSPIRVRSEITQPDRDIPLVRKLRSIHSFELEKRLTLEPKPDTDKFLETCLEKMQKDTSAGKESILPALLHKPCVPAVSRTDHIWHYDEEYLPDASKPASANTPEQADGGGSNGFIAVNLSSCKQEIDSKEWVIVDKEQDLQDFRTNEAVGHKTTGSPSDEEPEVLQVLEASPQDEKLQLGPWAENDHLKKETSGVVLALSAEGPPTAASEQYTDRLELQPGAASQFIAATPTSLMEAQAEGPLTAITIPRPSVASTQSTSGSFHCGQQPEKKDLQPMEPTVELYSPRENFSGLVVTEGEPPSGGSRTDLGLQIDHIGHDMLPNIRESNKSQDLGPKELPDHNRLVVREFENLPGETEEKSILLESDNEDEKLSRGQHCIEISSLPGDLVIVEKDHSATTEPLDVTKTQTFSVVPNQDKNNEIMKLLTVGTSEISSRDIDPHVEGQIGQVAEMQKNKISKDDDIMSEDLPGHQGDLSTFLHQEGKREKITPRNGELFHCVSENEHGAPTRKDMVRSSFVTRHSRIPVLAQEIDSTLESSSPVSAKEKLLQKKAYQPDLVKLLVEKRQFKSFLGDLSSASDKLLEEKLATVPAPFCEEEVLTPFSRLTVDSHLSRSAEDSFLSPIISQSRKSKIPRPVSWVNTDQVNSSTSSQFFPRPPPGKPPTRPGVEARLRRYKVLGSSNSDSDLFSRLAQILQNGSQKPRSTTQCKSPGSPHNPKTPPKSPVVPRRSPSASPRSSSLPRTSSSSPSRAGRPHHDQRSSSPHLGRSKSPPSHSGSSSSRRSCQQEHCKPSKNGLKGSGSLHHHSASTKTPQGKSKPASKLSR

[9] = biological target: Activin receptor type-1-like (Homo sapiens) (UniProt P37023); assay: Inhibition of recombinant human ALK1 (142 to end residues) assessed as residual activity at 1 uM using casein as substrate incubated for 40 mins in presence of [gamma-33ATP] by scintillation counting based radiometry assay relative to control
Chain of Activin receptor type-1-like (Homo sapiens) (P37023 whole entry, the tested form may be a part): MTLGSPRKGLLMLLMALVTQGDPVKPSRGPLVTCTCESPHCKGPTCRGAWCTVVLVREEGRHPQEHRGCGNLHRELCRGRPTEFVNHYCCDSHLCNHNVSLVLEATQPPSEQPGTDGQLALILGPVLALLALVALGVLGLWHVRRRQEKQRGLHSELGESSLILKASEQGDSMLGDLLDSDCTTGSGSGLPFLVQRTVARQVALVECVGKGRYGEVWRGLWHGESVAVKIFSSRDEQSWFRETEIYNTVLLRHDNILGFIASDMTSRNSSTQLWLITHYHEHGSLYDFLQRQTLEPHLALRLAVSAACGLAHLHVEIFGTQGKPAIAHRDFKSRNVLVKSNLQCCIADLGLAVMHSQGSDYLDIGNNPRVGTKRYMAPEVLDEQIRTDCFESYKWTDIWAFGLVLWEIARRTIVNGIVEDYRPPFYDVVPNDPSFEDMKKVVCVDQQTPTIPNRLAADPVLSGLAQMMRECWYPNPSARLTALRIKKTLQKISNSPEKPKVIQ

[10] = biological target: Epithelial discoidin domain-containing receptor 1 (Homo sapiens) (UniProt Q08345); assay: Inhibition of recombinant human DDR1 (492 to end residues) assessed as residual activity at 1 uM using KKKSPGEYVNIEFG as substrate at 40 mins in presence of [gamma-33ATP] by scintillation counting based radiometry assay relative to control
[11] = test system: Mast/stem cell growth factor receptor Kit (Homo sapiens), P10721 [D816H]; assay: Inhibition of recombinant human C-Kit D816H mutant (544 to end residues) assessed as residual activity at 1 uM poly(Glu, Tyr) 4:1 as substrate incubated 40 mins in presence of [gamma-33ATP] by scintillation counting based radiometry assay relative to control
[12] = biological target: Phosphatidylinositol 5-phosphate 4-kinase type-2 alpha (Homo sapiens) (UniProt P48426); assay: Inhibition of recombinant full-length human PIP4K2alpha at 1 uM assessed as residual activity at 1 uM using phosphatidylinositol 5-phosphate as substrate measured after 40 mins by HTRF assay
Chain of Phosphatidylinositol 5-phosphate 4-kinase type-2 alpha (Homo sapiens) (P48426 whole entry): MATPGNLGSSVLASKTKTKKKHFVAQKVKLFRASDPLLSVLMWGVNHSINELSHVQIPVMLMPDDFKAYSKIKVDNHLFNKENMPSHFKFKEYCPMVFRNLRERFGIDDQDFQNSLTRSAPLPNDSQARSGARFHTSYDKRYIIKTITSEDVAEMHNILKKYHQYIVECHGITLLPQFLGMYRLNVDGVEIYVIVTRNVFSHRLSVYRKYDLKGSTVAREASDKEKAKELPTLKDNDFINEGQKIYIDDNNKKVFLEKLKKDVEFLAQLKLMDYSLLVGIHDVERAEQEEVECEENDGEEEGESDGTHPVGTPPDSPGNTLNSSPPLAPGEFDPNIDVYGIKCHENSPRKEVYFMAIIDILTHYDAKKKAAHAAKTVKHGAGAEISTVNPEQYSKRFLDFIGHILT

[13] = biological target: Phosphatidylinositol 4-phosphate 5-kinase type-1 gamma (Homo sapiens) (UniProt O60331); assay: Inhibition of recombinant full-length human PIP5K1gamma at 1 uM assessed as residual activity at 1 uM using phosphatidylinositol 4-phosphate as substrate measured after 40 mins by HTRF assay
[14] = test system: Proto-oncogene tyrosine-protein kinase Src (Homo sapiens), P12931 [T341M]; assay: Inhibition of recombinant full-length human Src T341M mutant at 1 uM assessed as residual activity at 1 uM using GGEEEEYFELVKKKK as substrate measured after 40 mins in presence of [gamma33P]ATP by scintillation counting method relative to control
[15] = biological target: Cyclin-dependent kinase-like 4 (Homo sapiens) (UniProt Q5MAI5); assay: Inhibition of recombinant full length human CDKL4 assessed as residual activity at 1 uM in presence of [gamma-33ATP] by scintillation counting based radiometry assay relative to control
[16] = biological target: Ephrin type-A receptor 5 (Homo sapiens) (UniProt P54756); assay: Inhibition of recombinant human EphA5 (655to 956 residues) assessed as residual activity at 1 uM using poly(Glu, Tyr) 4:1 as substrate at 40 mins in presence of [gamma-33ATP] by scintillation counting based radiometry assay relative to control
Chain of Ephrin type-A receptor 5 (Homo sapiens) (P54756 whole entry, the tested form may be a part): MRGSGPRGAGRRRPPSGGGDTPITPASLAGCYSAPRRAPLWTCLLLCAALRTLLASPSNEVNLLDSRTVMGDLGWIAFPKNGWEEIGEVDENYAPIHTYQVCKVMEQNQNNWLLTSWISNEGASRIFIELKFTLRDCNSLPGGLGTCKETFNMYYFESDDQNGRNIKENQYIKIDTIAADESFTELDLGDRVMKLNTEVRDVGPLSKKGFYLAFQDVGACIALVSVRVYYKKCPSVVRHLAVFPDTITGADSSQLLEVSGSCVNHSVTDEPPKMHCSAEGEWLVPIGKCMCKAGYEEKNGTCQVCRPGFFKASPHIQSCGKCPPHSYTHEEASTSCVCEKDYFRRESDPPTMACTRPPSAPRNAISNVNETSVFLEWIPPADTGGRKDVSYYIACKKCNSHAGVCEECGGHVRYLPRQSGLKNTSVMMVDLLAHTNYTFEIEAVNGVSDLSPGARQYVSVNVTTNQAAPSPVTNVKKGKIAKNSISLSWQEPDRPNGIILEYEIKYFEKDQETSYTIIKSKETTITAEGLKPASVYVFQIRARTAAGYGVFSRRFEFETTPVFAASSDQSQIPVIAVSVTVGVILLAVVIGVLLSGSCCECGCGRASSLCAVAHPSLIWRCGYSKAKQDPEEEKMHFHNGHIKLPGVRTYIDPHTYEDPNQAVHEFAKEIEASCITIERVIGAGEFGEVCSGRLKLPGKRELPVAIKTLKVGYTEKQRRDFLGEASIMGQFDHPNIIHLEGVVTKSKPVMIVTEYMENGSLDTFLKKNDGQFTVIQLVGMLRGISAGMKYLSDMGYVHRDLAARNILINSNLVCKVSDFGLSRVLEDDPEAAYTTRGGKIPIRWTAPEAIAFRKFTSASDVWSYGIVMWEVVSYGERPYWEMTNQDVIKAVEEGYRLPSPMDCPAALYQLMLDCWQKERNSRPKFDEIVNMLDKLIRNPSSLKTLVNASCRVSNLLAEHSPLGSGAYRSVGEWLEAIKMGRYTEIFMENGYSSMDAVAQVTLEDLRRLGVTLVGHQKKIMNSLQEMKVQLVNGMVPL

[17] = test system: Protein kinase C eta type (Homo sapiens), P24723 [UNDEFINED MUTATION]; assay: Inhibition of recombinant human PKCeta V108L/G109R/L392Q mutant (2 to end residues) assessed as residual activity at 1 uM using ERMRPRKRQGSVRRRV as substrate incubated for 40 mins in presence of [gamma33P]ATP by scintillation counting based radiometry assay relative to control
[18] = biological target: Phosphorylase b kinase gamma catalytic chain, skeletal muscle/heart isoform (Homo sapiens) (UniProt Q16816); assay: Inhibition of recombinant full-length human PhKgamma1 assessed as residual activity at 1 uM using KKLNRTLSFAEPG as substrate measured after 120 mins in presence of [gamma33P]ATP by scintillation counting method relative to control
[19] = biological target: Casein kinase II subunit alpha (Homo sapiens) (UniProt P68400); assay: Inhibition of recombinant full length human CK2alpha1 assessed as residual activity at 1 uM using RRRDDDSDDD as substrate incubated 40 mins in presence of [gamma-33ATP] by scintillation counting based radiometry assay relative to control
Chain of Casein kinase II subunit alpha (Homo sapiens) (P68400 whole entry, looked up): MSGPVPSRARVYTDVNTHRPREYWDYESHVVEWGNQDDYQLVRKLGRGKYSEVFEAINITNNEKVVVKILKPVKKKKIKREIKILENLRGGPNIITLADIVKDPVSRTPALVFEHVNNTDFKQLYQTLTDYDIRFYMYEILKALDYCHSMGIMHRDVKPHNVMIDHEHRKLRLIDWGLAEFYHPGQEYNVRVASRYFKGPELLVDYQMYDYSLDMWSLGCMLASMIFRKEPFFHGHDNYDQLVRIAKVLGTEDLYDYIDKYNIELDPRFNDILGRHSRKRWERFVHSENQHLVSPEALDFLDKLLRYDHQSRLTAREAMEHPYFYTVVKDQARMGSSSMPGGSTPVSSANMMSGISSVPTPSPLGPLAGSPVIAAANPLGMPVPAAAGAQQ

[20] = test system: Mast/stem cell growth factor receptor Kit (Homo sapiens), P10721 [D816V]; assay: Inhibition of recombinant human C-Kit D816V mutant (544 to end residues) assessed as residual activity at 1 uM poly(Glu, Tyr) 4:1 as substrate incubated 40 mins in presence of [gamma-33ATP] by scintillation counting based radiometry assay relative to control
[21] = biological target: Interleukin-1 receptor-associated kinase 1 (Homo sapiens) (UniProt P51617); assay: Inhibition of human IRAK1 (194 to end residues) assessed as residual activity at 1 uM using myelin basic protein as substrate after 40 mins by [gamma-33ATP] radiometric assay relative to control
Chain of Interleukin-1 receptor-associated kinase 1 (Homo sapiens) (P51617 whole entry, looked up): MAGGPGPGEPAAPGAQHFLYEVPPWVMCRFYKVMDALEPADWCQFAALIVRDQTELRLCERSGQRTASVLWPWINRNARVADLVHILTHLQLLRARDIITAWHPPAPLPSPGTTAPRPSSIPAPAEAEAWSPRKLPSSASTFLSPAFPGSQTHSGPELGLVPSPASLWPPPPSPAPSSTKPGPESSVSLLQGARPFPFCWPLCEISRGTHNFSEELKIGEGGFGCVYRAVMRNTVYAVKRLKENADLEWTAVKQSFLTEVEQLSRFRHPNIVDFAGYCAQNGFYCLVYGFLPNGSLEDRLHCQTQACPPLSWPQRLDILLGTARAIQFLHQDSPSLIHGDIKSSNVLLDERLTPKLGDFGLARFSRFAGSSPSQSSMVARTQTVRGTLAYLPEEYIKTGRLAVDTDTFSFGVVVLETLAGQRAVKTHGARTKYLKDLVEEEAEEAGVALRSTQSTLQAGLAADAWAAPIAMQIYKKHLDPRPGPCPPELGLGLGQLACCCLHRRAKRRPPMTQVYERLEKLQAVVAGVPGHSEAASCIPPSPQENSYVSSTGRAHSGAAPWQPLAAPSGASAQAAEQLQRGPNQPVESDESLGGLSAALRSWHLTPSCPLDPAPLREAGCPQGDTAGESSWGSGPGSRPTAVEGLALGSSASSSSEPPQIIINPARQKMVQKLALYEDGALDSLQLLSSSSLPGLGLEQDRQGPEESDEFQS

Compound | Activity [1] [%] | Activity [2] [%] | Activity [3] [%] | Activity [4] [%] | Activity [5] [%] | Activity [6] [%] | Activity [7] [%] | Activity [8] [%] | Activity [9] [%] | Activity [10] [%] | Activity [11] [%] | Activity [12] [%] | Activity [13] [%] | Activity [14] [%] | Activity [15] [%] | Activity [16] [%] | Activity [17] [%] | Activity [18] [%] | Activity [19] [%] | Activity [20] [%] | other results
C=CCOC(=O)c1cc(-c2ccc(/C=C3/NC(=S)NC3=O)o2)ccc1Cl | 100 | 104 | 89 | 87 | 100 | 104 | 90 | 111 | 95 | 106 | 97 | 98 | 100 | 92 | 58 | 100 | 99 | 94 | 59 | 97 | Activity [21]: 90%
N=C1NC(=O)/C(=C\c2ccc(-c3cccc([N+](=O)[O-])c3)o2)S1 | 100 | 106 | 65 | 57 | 101 | 100 | 98 | 107 | 99 | 99 | 89 | 99 | 101 | 97 | 65 | 89 | 101 | 91 | 57 | 94 | Activity [21]: 100%
